For this assay, the system named is MV-4-11 cells. Kind of assay: Gene expression microarray analysis (Affymetrix PrimeView) and GSEA. Format: cell-based, human. Further details: RFU PODN (11730768_x_at) / Fold change /veh PODN (11730768_x_at) / RFU LINC00158 (11744669_a_at) / Fold change /veh LINC00158 (11744669_a_at) / RFU DUSP10 (11751237_a_at) / Fold change /veh DUSP10 (11751237_a_at) / RFU ID3 (11757404_x_at) / Fold change /veh ID3 (11757404_x_at) / RFU PLEKHG5 (11737974_s_at) / Fold change /veh PLEKHG5 (11737974_s_at) / RFU LRRC4B (11730491_at) / Fold change /veh LRRC4B (11730491_at) / RFU GIMAP4 (11747438_a_at) / Fold change /veh GIMAP4 (11747438_a_at) / RFU KRT8 (11758183_x_at) / Fold change /veh KRT8 (11758183_x_at) / RFU CNN1 (11734310_a_at) / Fold change /veh CNN1 (11734310_a_at) / RFU VPS37D (11726825_at) / Fold change /veh VPS37D (11726825_at) / RFU C10orf10 (11716522_x_at) / Fold change /veh C10orf10 (11716522_x_at) / RFU KIR2DL2 /// KIR2DL4 /// KIR2DL5A /// KIR2DL5B /// KIR2DS1 /// KIR2DS2 /// KIR2DS3 /// KIR2DS4 /// KIR3DL3 /// KIR3DL3 /// KIR3DS1 (11738374_at) / Fold change /veh KIR2DL2 /// KIR2DL4 /// KIR2DL5A /// KIR2DL5B /// KIR2DS1 /// KIR2DS2 /// KIR2DS3 /// KIR2DS4 /// KIR3DL3 /// KIR3DL3 /// KIR3DS1 (11738374_at) / RFU C1QL1 (11718748_at) / Fold change /veh C1QL1 (11718748_at) / RFU TMPRSS4 (11747572_a_at) / Fold change /veh TMPRSS4 (11747572_a_at) / RFU HAMP (11756126_x_at) / Fold change /veh HAMP (11756126_x_at) / RFU RNFT2 (11725882_a_at) / Fold change /veh RNFT2 (11725882_a_at) / RFU NR4A2 (11747474_a_at) / Fold change /veh NR4A2 (11747474_a_at) / RFU ABCC12 (11746883_a_at) / Fold change /veh ABCC12 (11746883_a_at) / RFU TMEM136 (11760407_x_at) / Fold change /veh TMEM136 (11760407_x_at) / RFU CLDN22 /// WWC2 (11732394_at) / Fold change /veh CLDN22 /// WWC2 (11732394_at) / RFU HLA-DPB1 (11760878_x_at) / Fold change /veh HLA-DPB1 (11760878_x_at) / RFU SPINT1 (11716480_a_at) / Fold change /veh SPINT1 (11716480_a_at) / RFU GAP43 (11754022_s_at) / Fold change /veh GAP43 (11754022_s_at) / RFU A4GNT (11735810_at) / Fold change /veh A4GNT (11735810_at) / RFU PRB3 (11715151_x_at) / Fold change /veh PRB3 (11715151_x_at) / RFU TUBB4B (11761932_at) / Fold change /veh TUBB4B (11761932_at) / RFU CAPN14 (11732068_a_at) / Fold change /veh CAPN14 (11732068_a_at) / RFU TMCC2 (11721928_a_at) / Fold change /veh TMCC2 (11721928_a_at) / RFU IRGQ (11745062_a_at) / Fold change /veh IRGQ (11745062_a_at) / RFU FAM174B (11720279_a_at) / Fold change /veh FAM174B (11720279_a_at) / RFU TMPRSS4 (11748680_a_at) / Fold change /veh TMPRSS4 (11748680_a_at) / RFU FAM212B (11763350_a_at) / Fold change /veh FAM212B (11763350_a_at) / RFU PLEKHG5 (11743358_a_at) / Fold change /veh PLEKHG5 (11743358_a_at) / RFU ZSCAN30 (11745921_a_at) / Fold change /veh ZSCAN30 (11745921_a_at) / RFU CMKLR1 (11741424_a_at) / Fold change /veh CMKLR1 (11741424_a_at) / RFU LOC101060620 /// MAPK8IP1 (11723275_at) / Fold change /veh LOC101060620 /// MAPK8IP1 (11723275_at) / RFU SPTSSB (11747773_x_at) / Fold change /veh SPTSSB (11747773_x_at) / RFU PRSS12 (11739890_at) / Fold change /veh PRSS12 (11739890_at) / RFU BIN1 (11741810_x_at) / Fold change /veh BIN1 (11741810_x_at) / RFU WNT11 (11732464_a_at) / Fold change /veh WNT11 (11732464_a_at) / RFU C10orf10 (11716521_a_at) / Fold change /veh C10orf10 (11716521_a_at) / RFU C5orf56 (11738089_at) / Fold change /veh C5orf56 (11738089_at) / RFU CYB561 (11721691_x_at) / Fold change /veh CYB561 (11721691_x_at) / RFU ANKRD19P (11752326_a_at) / Fold change /veh ANKRD19P (11752326_a_at) / RFU OR2T12 /// OR2T33 /// OR2T8 (11738714_s_at) / Fold change /veh OR2T12 /// OR2T33 /// OR2T8 (11738714_s_at) / RFU VCAN (11748164_a_at) / Fold change /veh VCAN (11748164_a_at) / RFU JSRP1 (11732532_at) / Fold change /veh JSRP1 (11732532_at) / RFU KRTAP10-11 (11738290_x_at) / Fold change /veh KRTAP10-11 (11738290_x_at) / RFU MYO3A (11730013_a_at) / Fold change /veh MYO3A (11730013_a_at) / RFU EBF3 (11725865_a_at) / Fold change /veh EBF3 (11725865_a_at) / RFU CAMK2N1 (11719241_x_at) / Fold change /veh CAMK2N1 (11719241_x_at) / RFU C5orf56 (11738088_a_at) / Fold change /veh C5orf56 (11738088_a_at) / RFU OLFML3 (11715873_a_at) / Fold change /veh OLFML3 (11715873_a_at) / RFU LOC100653217 /// NTM (11731650_a_at) / Fold change /veh LOC100653217 /// NTM (11731650_a_at) / RFU MAPK11 (11762145_a_at) / Fold change /veh MAPK11 (11762145_a_at) / RFU FIZ1 (11724087_x_at) / Fold change /veh FIZ1 (11724087_x_at) / RFU OASL (11726364_x_at) / Fold change /veh OASL (11726364_x_at) / RFU SOX15 (11748057_x_at) / Fold change /veh SOX15 (11748057_x_at) / RFU CD79A (11719716_a_at) / Fold change /veh CD79A (11719716_a_at) / RFU HIST1H1D (11736915_at) / Fold change /veh HIST1H1D (11736915_at) / RFU CASKIN2 (11723855_a_at) / Fold change /veh CASKIN2 (11723855_a_at) / RFU LOC730098 (11760151_x_at) / Fold change /veh LOC730098 (11760151_x_at) / RFU OR4N2 (11742367_at) / Fold change /veh OR4N2 (11742367_at) / RFU PRRT2 (11749266_a_at) / Fold change /veh PRRT2 (11749266_a_at) / RFU SNX32 (11753110_a_at) / Fold change /veh SNX32 (11753110_a_at) / RFU CDHR5 (11726645_a_at) / Fold change /veh CDHR5 (11726645_a_at) / RFU RCAN1 (11760418_a_at) / Fold change /veh RCAN1 (11760418_a_at) / RFU FAM167A (11723789_a_at) / Fold change /veh FAM167A (11723789_a_at) / RFU FAM26E (11764081_at) / Fold change /veh FAM26E (11764081_at) / RFU ISYNA1 (11749810_s_at) / Fold change /veh ISYNA1 (11749810_s_at) / RFU ACY1 (11761880_at) / Fold change /veh ACY1 (11761880_at) / RFU 11764098_at / Fold change /veh 11764098_at / RFU SAMD14 (11745864_x_at) / Fold change /veh SAMD14 (11745864_x_at) / RFU NPB (11741838_a_at) / Fold change /veh NPB (11741838_a_at) / RFU TMPRSS6 (11731388_a_at) / Fold change /veh TMPRSS6 (11731388_a_at) / RFU KRTAP10-2 (11738614_at) / Fold change /veh KRTAP10-2 (11738614_at) / RFU ARHGAP8 /// PRR5-ARHGAP8 (11727945_x_at) / Fold change /veh ARHGAP8 /// PRR5-ARHGAP8 (11727945_x_at) / RFU KRTAP5-7 /// NADSYN1 (11734609_at) / Fold change /veh KRTAP5-7 /// NADSYN1 (11734609_at) / RFU RASL12 (11751679_a_at) / Fold change /veh RASL12 (11751679_a_at) / RFU CDKN2B (11736163_a_at) / Fold change /veh CDKN2B (11736163_a_at) / RFU PRF1 (11729649_at) / Fold change /veh PRF1 (11729649_at) / RFU, ZNF638 /// ZNF638-IT1 / Fold change vs veh, ZNF638 /// ZNF638-IT1 / RFU, PANK3 / Fold change vs veh, PANK3 / RFU, SH3YL1 / Fold change vs veh, SH3YL1 / RFU, ZEB2 / Fold change vs veh, ZEB2 / RFU, NRIP1 / Fold change vs veh, NRIP1 / RFU, PTTG1IP / Fold change vs veh, PTTG1IP / RFU, CAPN2 / Fold change vs veh, CAPN2 / RFU, MED14 / Fold change vs veh, MED14 / RFU, SNORA58 / Fold change vs veh, SNORA58 / RFU, C1orf63 / Fold change vs veh, C1orf63 / RFU, LRRFIP1 / Fold change vs veh, LRRFIP1 / RFU, NDUFAF7 / Fold change vs veh, NDUFAF7 / RFU, SLC12A2 / Fold change vs veh, SLC12A2 / RFU, IBTK / Fold change vs veh, IBTK / RFU, ESF1 / Fold change vs veh, ESF1 / Fold change vs veh, TMEM50B / RFU, TAOK1 / Fold change vs veh, TAOK1 / RFU, ACBD3 / Fold change vs veh, ACBD3 / RFU, TMA16 / Fold change vs veh, TMA16 / RFU, RWDD3 / Fold change vs veh, RWDD3 / RFU, BCAT1 / Fold change vs veh, BCAT1 / RFU, EDEM3 / Fold change vs veh, EDEM3 / RFU, TMEM33 / Fold change vs veh, TMEM33 / RFU, WDR75 / Fold change vs veh, WDR75 / RFU, AHCTF1 / Fold change vs veh, AHCTF1 / RFU, TFRC / Fold change vs veh, TFRC / RFU, ZDHHC17 / Fold change vs veh, ZDHHC17 / RFU, NOM1 / Fold change vs veh, NOM1 / RFU, ARL8B / Fold change vs veh, ARL8B / RFU, ZBTB11 / Fold change vs veh, ZBTB11 / RFU, TAMM41 / Fold change vs veh, TAMM41 / RFU, KIAA1704 /// LOC100996395 / Fold change vs veh, KIAA1704 /// LOC100996395 / RFU, ING1 / Fold change vs veh, ING1 / RFU, TRMT61B / Fold change vs veh, TRMT61B / RFU, FUBP3 / Fold change vs veh, FUBP3 / RFU, TP53 / Fold change vs veh, TP53 / RFU, TNKS2 / Fold change vs veh, TNKS2 / RFU, ZFP14 / Fold change vs veh, ZFP14 / RFU, ACTR2 / Fold change vs veh, ACTR2 / RFU, PPP3R1 / Fold change vs veh, PPP3R1 / RFU, PIK3R1 / Fold change vs veh, PIK3R1 / RFU, HNRNPA1 / Fold change vs veh, HNRNPA1 / RFU, RNF170 / Fold change vs veh, RNF170 / RFU, ZNF28 / Fold change vs veh, ZNF28 / RFU, RNGTT / Fold change vs veh, RNGTT / RFU, OGT / Fold change vs veh, OGT / RFU, BRD1 / Fold change vs veh, BRD1 / RFU, MARS / Fold change vs veh, MARS / RFU, ZNF655 / Fold change vs veh, ZNF655 / RFU, FAHD1 / Fold change vs veh, FAHD1 / RFU, BDP1 / Fold change vs veh, BDP1 / RFU, LRRCC1 / Fold change vs veh, LRRCC1 / RFU, ARID1A / Fold change vs veh, ARID1A / RFU, ZNF146 / Fold change vs veh, ZNF146 / RFU, ZNF330 / Fold change vs veh, ZNF330 / RFU, GPN3 / Fold change vs veh, GPN3 / RFU, C9orf123 / Fold change vs veh, C9orf123 / RFU, N4BP2L2 / Fold change vs veh, N4BP2L2 / RFU, ARFIP1 / Fold change vs veh, ARFIP1 / RFU, FAM179B / Fold change vs veh, FAM179B / RFU, BCL10 / Fold change vs veh, BCL10 / RFU, UHRF1BP1L / Fold change vs veh, UHRF1BP1L / RFU, BET1 / Fold change vs veh, BET1 / RFU, CNOT2 / Fold change vs veh, CNOT2 / RFU, ZNF268 / Fold change vs veh, ZNF268 / Fold change vs veh, ZNF507 / RFU, DGCR2 / Fold change vs veh, DGCR2 / RFU, WDSUB1 / Fold change vs veh, WDSUB1 / Fold change vs veh, HSP90B1 /// MIR3652 / RFU, ADSS / Fold change vs veh, ADSS / RFU, GK / Fold change vs veh, GK / RFU, ZNF148 / Fold change vs veh, ZNF148 / RFU, TAF9 / Fold change vs veh, TAF9 / RFU, SLC1A5 / Fold change vs veh, SLC1A5 / RFU, SLMO2 / Fold change vs veh, SLMO2 / RFU, ABCC4 / Fold change vs veh, ABCC4 / RFU, LOC101060439 /// RAP1B / Fold change vs veh, LOC101060439 /// RAP1B / RFU, RFX7 / Fold change vs veh, RFX7 / RFU, GTPBP10 / Fold change vs veh, GTPBP10 / RFU, CNEP1R1 / Fold change vs veh, CNEP1R1 / RFU, BIVM-ERCC5 /// ERCC5 / Fold change vs veh, BIVM-ERCC5 /// ERCC5 / RFU, ILF3 / Fold change vs veh, ILF3 / RFU 11762660_at / Fold change /veh 11762660_at / RFU VCAN (11757783_s_at) / Fold change /veh VCAN (11757783_s_at) / RFU DDX43 (11728927_at) / Fold change /veh DDX43 (11728927_at) / RFU KRT8 (11758188_x_at) / Fold change /veh KRT8 (11758188_x_at) / RFU NKD1 (11759106_at) / Fold change /veh NKD1 (11759106_at) / RFU SRD5A1 (11742802_a_at) / Fold change /veh SRD5A1 (11742802_a_at) / RFU TPSAB1 /// TPSB2 (11721975_s_at) / Fold change /veh TPSAB1 /// TPSB2 (11721975_s_at) / RFU GSTM3 (11746129_a_at) / Fold change /veh GSTM3 (11746129_a_at) / RFU IL23R (11737362_x_at) / Fold change /veh IL23R (11737362_x_at) / RFU TMEM51 (11727254_a_at) / Fold change /veh TMEM51 (11727254_a_at) / RFU PIWIL2 (11732686_x_at) / Fold change /veh PIWIL2 (11732686_x_at) / RFU ORM1 (11744905_x_at) / Fold change /veh ORM1 (11744905_x_at) / RFU CCDC152 (11743942_at) / Fold change /veh CCDC152 (11743942_at) / RFU ECM1 (11717891_a_at) / Fold change /veh ECM1 (11717891_a_at) / RFU IL23R (11748794_a_at) / Fold change /veh IL23R (11748794_a_at) / RFU TNFAIP8L3 (11732012_x_at) / Fold change /veh TNFAIP8L3 (11732012_x_at) / RFU MBOAT4 (11741988_at) / Fold change /veh MBOAT4 (11741988_at) / RFU 11764193_at / Fold change /veh 11764193_at / RFU TMEM53 (11763286_at) / Fold change /veh TMEM53 (11763286_at) / RFU MAGEB2 (11727129_at) / Fold change /veh MAGEB2 (11727129_at) / RFU TMEM200A (11744735_a_at) / Fold change /veh TMEM200A (11744735_a_at) / RFU CCDC152 (11751479_a_at) / Fold change /veh CCDC152 (11751479_a_at) / RFU FAM211A (11726209_a_at) / Fold change /veh FAM211A (11726209_a_at) / RFU RGS16 (11746705_a_at) / Fold change /veh RGS16 (11746705_a_at) / RFU VCAN (11755009_s_at) / Fold change /veh VCAN (11755009_s_at) / RFU RHOB (11743442_s_at) / Fold change /veh RHOB (11743442_s_at) / RFU RGS16 (11720943_a_at) / Fold change /veh RGS16 (11720943_a_at) / RFU RGS16 (11720944_at) / Fold change /veh RGS16 (11720944_at) / RFU, VPS4B / Fold change vs veh, VPS4B / RFU, CREB1 / Fold change vs veh, CREB1 / RFU, DNAJC13 / Fold change vs veh, DNAJC13 / RFU, GNAQ / Fold change vs veh, GNAQ / RFU, CDK5R1 / Fold change vs veh, CDK5R1 / RFU, ZRANB3 / Fold change vs veh, ZRANB3 / RFU, CUL4A / Fold change vs veh, CUL4A / RFU, CCNY / Fold change vs veh, CCNY / RFU, UFL1 / Fold change vs veh, UFL1 / RFU, COG3 / Fold change vs veh, COG3 / RFU, DIAPH2 / Fold change vs veh, DIAPH2 / RFU, SKA2 / Fold change vs veh, SKA2 / RFU, AFF3 / Fold change vs veh, AFF3 / RFU, LMF1 / Fold change vs veh, LMF1 / RFU, IPO11 / Fold change vs veh, IPO11 / RFU, DFFB / Fold change vs veh, DFFB / RFU, FOXP1 / Fold change vs veh, FOXP1 / RFU, CARD8 / Fold change vs veh, CARD8 / RFU, STRN3 / Fold change vs veh, STRN3 / RFU, ADK / Fold change vs veh, ADK / RFU, RASSF2 / Fold change vs veh, RASSF2 / RFU, WIPF1 / Fold change vs veh, WIPF1 / RFU, LARP1B / Fold change vs veh, LARP1B / RFU, RASA1 / Fold change vs veh, RASA1 / RFU, RB1 / Fold change vs veh, RB1 / RFU, PPFIA1 / Fold change vs veh, PPFIA1 / RFU, MAT2A / Fold change vs veh, MAT2A / RFU, CCT5 / Fold change vs veh, CCT5 / RFU, WDR92 / Fold change vs veh, WDR92 / RFU, CUX1 / Fold change vs veh, CUX1 / RFU, TTC7A / Fold change vs veh, TTC7A / RFU, TMEM135 / Fold change vs veh, TMEM135 / RFU, DEPTOR / Fold change vs veh, DEPTOR / RFU, CPM / Fold change vs veh, CPM / RFU, DNAJB6 / Fold change vs veh, DNAJB6 / RFU, CACNA2D3 / Fold change vs veh, CACNA2D3 / RFU, DTX4 / Fold change vs veh, DTX4 / RFU, TFCP2 / Fold change vs veh, TFCP2 / RFU, GMCL1 /// GMCL1P1 / Fold change vs veh, GMCL1 /// GMCL1P1 / RFU, AEBP2 / Fold change vs veh, AEBP2 / RFU, SNHG1 /// SNORD22 /// SNORD25 /// SNORD26 /// SNORD27 /// SNORD28 /// SNORD29 /// SNORD31 / Fold change vs veh, SNHG1 /// SNORD22 /// SNORD25 /// SNORD26 /// SNORD27 /// SNORD28 /// SNORD29 /// SNORD31 / Fold change (Aza/veh), C12orf56 (ProbeSet 11735607_a_at) / Fold change (ACY-1035/veh), C12orf56 (ProbeSet 11735607_a_at) / Fold change (Aza/veh), FGFR1OP (ProbeSet 11751329_s_at) / Fold change (ACY-1035/veh), FGFR1OP (ProbeSet 11751329_s_at) / Fold change (Aza/veh), VPS36 (ProbeSet 11739960_a_at) / Fold change (ACY-1035/veh), VPS36 (ProbeSet 11739960_a_at) / RFU SYPL1 (11715823_x_at) / Fold change /veh SYPL1 (11715823_x_at) / RFU IGFBP7 (11715501_s_at) / Fold change /veh IGFBP7 (11715501_s_at) / RFU REEP3 (11722064_at) / Fold change /veh REEP3 (11722064_at) / RFU IGLL1 (11728026_x_at) / Fold change /veh IGLL1 (11728026_x_at): dose or concentration left out as unconfirmed. As to conditions: ProbeSet 11725141_a_at; LIST B.

SMILES strings stand for the structures.

In the case of `Nc1ncn([C@@H]2O[C@H](CO)[C@@H](O)[C@H]2O)c(=O)n1` [azacitidine], the “RFU, FUBP3” value stood at 470.91 RFU.

The record behind these values is article PMC5218480 (PLoS ONE, 2017).
